According to patent EP2149374A1 (WORLD-TRADE IMPORT-EXPORT, WTIE, A.G., priority 2007, dated 2008):

Legend:
[1] = Comparative clinical study: general urine examination (leukocytes in urine sediments, urine pH); format: in vivo, patients; settings: n=50 per group
Text: (§1) Urinary tract infection constitutes the most frequent urologic disease and is one of the most common infections in human beings. Urinary infection encompasses several clinical conditions, so the proper study thereof is very important for a suitable diagnose and treatment, in view of the extensive and not inconsiderable hospital and healthcare expenses these involve.
(§2) Inclusion criteria were the following: • - Patients from 18 to 75 years of age. • - Patients having a non-complex acute urinary infection diagnose. • > 12 leukocytes per mm3 in urine sediments. • - Urine counts of > 100,000 UFC/ml. • - Urine pH over 6.0. • - Microorganism identification.
(§3) Only twice a day for 5 days,- group 2, received Vitamin C 100 mg.
General urine examination determined the color, appearance and density thereof, as well as the pH, Proteins, Glucose, Ketones, Blood, Bilirubin, Urobilinogen, Nitrites, Density and Leukocytes. […] Table 2. Leukocytes per mm3 in baseline urine sediments and up to Day 5 of the treatment.

E. coli = assay: Comparative clinical study: urocultive by antibiogram, urine counts (colony-forming units); format: in vivo, Escherichia coli; settings: n=50 per group
Text: as §1, §2, §3
Table 4. Urine Counts in UFC/ml. (Colony-Forming Units).

[2] = Comparative clinical study: overall healing process (conclusions); format: in vivo; settings: patients with acute non-complex urinary tract infection, 5 days of treatment
Description: as §1, §3

With `O=C1O[C@H]([C@@H](O)CO)C(O)=C1O` [Vitamin C, Ascorbic Acid] the “pH (Day 1)” value ([1]; baseline urine pH, before treatment) was 7.6, the “Leukocytes (Day 1)” value ([1]; baseline urine sediments, before treatment) was greater than 13 per mm3 and the “pH (Day 5)” value ([1]; urine pH, Day 5 of the treatment, twice a day for 5 days) was 5.0. The “Leukocytes Day 5” value ([1]; urine sediments, Day 5 of the treatment, twice a day for 5 days) was less than 10 per mm3, the “UFC/ml (Day 1)” value (E. coli; baseline urine counts (Colony-Forming Units), before treatment) was >100,000/ml. UFC/ml and the “UFC/ml Day 5” value (E. coli; urine counts (Colony-Forming Units), Day 5 of the treatment, twice a day for 5 days) was 90.000/ml. UFC/ml. For the same molecule, the healing process [2] was “not sufficient by itself to achieve a healing process”.
